Test results taken from PubChem BioAssay AID1963980 (Molecular Pharmacology Branch, DTP, NCI, 2024).

Test system: 475296-252-R-J1-PDC spheroid viability
Assay: Anticancer human tumor 475296-252-R-J1-PDC patient-derived rectal carcinoma cell line growth inhibition [PI3K]
Settings: spheroids with HUVEC and MSC; for IC50: curve of first compound; for viability, T/C: stronger effect = lower value
Procedure, shortened: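 Targeted small molecules plus PI3K inhibitors, half-log dose series from Cmax (default top 10 microM), were applied to heterotypic spheroids of cancer cells with HUVEC and MSCs. Viability indicated growth inhibition.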
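Further: spheroids exposed to agents for seven days before readout.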

## CC(C)NCC(C(=O)N1CCN(c2ncnc3c2C(C)CC3O)CC1)c1ccc(Cl)cc1 (configuration not stated) + CC(Nc1ncnc2nc[nH]c12)c1cc2cccc(Cl)c2c(=O)n1-c1ccccc1
Second compound 0.0316 µM
  IC50: > 10 µM
Second compound 0.1 µM
  IC50: > 10 µM
Second compound 0.316 µM
  IC50: > 10 µM
Second compound 1 µM
  IC50: > 10 µM
Second compound 3.16 µM
  IC50: > 10 µM
Second compound 10 µM
  IC50: > 10 µM
Second compound 0.0316 µM, first compound 0.0316 µM
  viability, T/C: 89.7%
Second compound 0.0316 µM, first compound 0.1 µM
  viability, T/C: 104%
Second compound 0.0316 µM, first compound 0.316 µM
  viability, T/C: 80.3%
Second compound 0.0316 µM, first compound 1 µM
  viability, T/C: 77.3%
Second compound 0.0316 µM, first compound 3.16 µM
  viability, T/C: 56.2%
Second compound 0.0316 µM, first compound 10 µM
  viability, T/C: 65.5%
Second compound 0.1 µM, first compound 0.0316 µM
  viability, T/C: 101%
Second compound 0.1 µM, first compound 0.1 µM
  viability, T/C: 93.2%
Second compound 0.1 µM, first compound 0.316 µM
  viability, T/C: 85.2%
Second compound 0.1 µM, first compound 1 µM
  viability, T/C: 73.3%
Second compound 0.1 µM, first compound 3.16 µM
  viability, T/C: 68.8%
Second compound 0.1 µM, first compound 10 µM
  viability, T/C: 63.2%
Second compound 0.316 µM, first compound 0.0316 µM
  viability, T/C: 117%
Second compound 0.316 µM, first compound 0.1 µM
  viability, T/C: 96.4%
Second compound 0.316 µM, first compound 0.316 µM
  viability, T/C: 89.1%
Second compound 0.316 µM, first compound 1 µM
  viability, T/C: 76%
Second compound 0.316 µM, first compound 3.16 µM
  viability, T/C: 59.9%
Second compound 0.316 µM, first compound 10 µM
  viability, T/C: 66.3%
Second compound 1 µM, first compound 0.0316 µM
  viability, T/C: 100%
Second compound 1 µM, first compound 0.1 µM
  viability, T/C: 103%
Second compound 1 µM, first compound 0.316 µM
  viability, T/C: 76%
Second compound 1 µM, first compound 1 µM
  viability, T/C: 61.8%
Second compound 1 µM, first compound 3.16 µM
  viability, T/C: 54.4%
Second compound 1 µM, first compound 10 µM
  viability, T/C: 65.5%
Second compound 3.16 µM, first compound 0.0316 µM
  viability, T/C: 93.1%
Second compound 3.16 µM, first compound 0.1 µM
  viability, T/C: 85.5%
Second compound 3.16 µM, first compound 0.316 µM
  viability, T/C: 82.5%
Second compound 3.16 µM, first compound 1 µM
  viability, T/C: 76.1%
Second compound 3.16 µM, first compound 3.16 µM
  viability, T/C: 67.9%
Second compound 3.16 µM, first compound 10 µM
  viability, T/C: 50.7%
Second compound 10 µM, first compound 0.0316 µM
  viability, T/C: 98%
Second compound 10 µM, first compound 0.1 µM
  viability, T/C: 84.1%
Second compound 10 µM, first compound 0.316 µM
  viability, T/C: 94.7%
Second compound 10 µM, first compound 1 µM
  viability, T/C: 67.1%
Second compound 10 µM, first compound 3.16 µM
  viability, T/C: 59.6%
Second compound 10 µM, first compound 10 µM
  viability, T/C: 56%
